Experimental data published in US20260207632A1, “C[…] THERAPY” (KINGDOM THERAPEUTICS LIMITED, priority 2022, published 2026).

What was measured:
rat VPA model of autism = experiment: Juvenile social play behaviour (P30) in the in utero valproic acid (VPA) rat model of autism; type: in vivo; parameters: key to play behaviour: +: improvement; Ø: no change
Method: Time-mated female Wistar rats were administered a single dose of valproic acid (VPA, 600 mg/kg, i.p.) on gestational day 12.5 (VPA/VEH). To determine behavioural deficits in the VPA autism model, male offspring were tested at juvenile (postnatal day 30) for the presence of abnormal behaviours associated with autism e.g., decreased sociability and increased irritability.
(§1) In the first study, a sub-chronic 8-day dosing schedule was employed with the test compound CBD administered alone (10, 30 and 60 mg/kg, p.o. VPA/CBD; dose volume 5 ml/kg). Control animals were administered sterile saline (0.9% w/v, i.p.) in utero and the vehicle control (ethanol: Kolliphor HS-15:0.9% saline (1:1:18, v/v/v) p.o. VEH/VEH). The test compound and vehicle control were administered to the animals once daily for 7 days prior to, and once again on each day of behavioural assessment, 60 minutes prior to test which consisted of a battery of behavioural paradigms: P30 social play and bottle brush test, P31-32 open field exploratory behaviour. A reference positive control, the atypical antipsychotic risperidone (0.125 mg/kg, i.p., once per day for 8 days prior to and for duration of behavioural testing), was included in study one for comparison. Subsequent to behavioural analysis the effect of CBD on gastrointestinal permeability was evaluated four hours following oral administration of fluorescein isothiocyanate-labelled dextran measured in plasma on postnatal day 33. On postnatal day 34, 60 minutes post a final treatment with the test agents, animals were humanely euthanised and samples collected to evaluate inflammatory biomarkers, gastrointestinal function and histology. 5 In the second study, the sub-optimal dose of CBD (30 mg/kg, p.o.) was evaluated in combination with administration of THC at increasing concentration (0.75, 1.5 and 3 mg/kg, p.o. VPA/CBD+THC). Comparison was made to CBD administered alone at the sub-optimal and effective doses (30 and 60 mg/kg, p.o.) and to vehicle controls as per study one. Behavioural and gastrointestinal readouts were examined as per study one with terminal samples collected on the final day of the experiment.
Time-mated female Wistar Han Rcc rats (Envigo, UK) were administered a single dose of valproic acid (VPA, Sigma Aldrich, Ireland, lot no. MKCB2699V, 600 mg/kg, i.p.) or vehicle (0.9% saline i.p.) on gestational day 12.5. Confirmation of the VPA induced developmental deficit was rapidly achieved by examination of characteristic “tail kinks” observed in all of the juvenile animals exposed to VPA. Litters were normalised to 8 animals and to male offspring at postnatal day 3. Male pups were cross fostered to make up the uniform litter size of eight. Male offspring were housed as per standard laboratory conditions until time of experimental use. Vehicle-treated control animals were employed as controls, with animals for both parts of the study prepared together. At weaning, animals were allocated into test groups according to a balanced design based on weight and litter to distribute these equally across each treatment group. Animals were introduced to the experimental holding rooms prior to the commencement of the study, housed in groups of 4 during this period in soft bottomed cages with sawdust bedding material, with enrichment consisting of nesting material, cardboard tubes and Perspex internal shelter, and maintained at 22-24° C. on a standard 12-hour light/dark cycle (07.30-19.30), with food and water available ad libitum. All animals were examined and weighed daily during drug treatment and experimental protocols. All procedures were carried out by individuals retaining the appropriate authorisation from the Irish Government Health Products Regulatory Authority. Furthermore, the study protocol was approved by the Animal Research Ethics Committee of University College Dublin, Ireland. […]

[1] = tested on: colonic myeloperoxidase (MPO) activity; experiment: Colon myeloperoxidase (MPO) activity (P34) in distal colon, VPA rat model; type: in vivo; parameters: key to MPO activity: +: improvement; Ø: no change
Method: as §1
Five animals were chosen at random from each of the agreed treatment groups. Colon tissue was collected after euthanasia, weighted, flushed using cold sterile saline, and divided into three sections. One distal sample (approx. 1 cm×1 cm) was employed for intestinal myeloperoxidase (MPO) activity as described below by Berand Ltd. This sample was weighed and stored at −80° C. until use. A second proximal colon sample (approx. 1 cm×5 cm) was prepared for histological analysis by collection using the Swiss roll technique, placed into a cassette for paraffin embedding and preservation in 10% formalin solution for 24 hours. They were then transferred into 70% ethanol solution until paraffin embedded. These samples were shipped in 70% ethanol solution to Transpharmation Ltd at trinity College Dublin, Ireland for further processing. Haematoxylin & eosin staining was performed on the tissue before imaging. Five images were taken from each animal at 1.25× magnification. Using ImageJ the thickness of the muscle layer was measured at 5 locations throughout the section. A third medial section of colon (approx. 1 cm×2.5 cm) was frozen in liquid nitrogen for the analysis of cytokine expression and was shipped at minus 80° C. to Transpharmation Ltd at Trinity College Dublin, Ireland.
Analysis of colonic myeloperoxidase (MPO) activity employed a colorimetric activity assay kit (MAK068, Sigma-Aldrich, Ireland). Samples were analysed according to the manufacturer's instructions. Briefly, weighted distal colon tissues from all the groups were rapidly homogenized with 4 volumes of MPO Assay buffer and then centrifuged (13000 g×10 min, 4° C.) to obtain the supernatant. A 50 μl aliquot of each was added to a flat bottomed 96 well plate and brought to a final volume of 100 μl with MPO assay buffer. The MPO activity in milliunits/mL was determined using a 5,5′-dithiobis-(2-nitrobenzoic acid) (DTNB) probe to produce a TNB chromophore in a standard curve (0-50 nmol/mL). Standards and blank were prepared according to manufacturer's instruction. Absorbance was read at 412 nm at 60 minutes and expressed per mg of tissue sample. […]

[2] = cohort two, CBD 30 mg/kg, THC 0 mg/kg p.o.
[3] = cohort two, CBD 60 mg/kg, THC 0 mg/kg p.o.
[4] = study one, CBD 60 mg/kg, vs VPA/VEH
[5] = cohort one, risperidone 0.125 mg/kg i.p.
[6] = study one, risperidone 0.125 mg/kg

C=C(C)[C@@H]1CCC(C)=C[C@H]1c1c(O)cc(CCCCC)cc1O [CBD, cannabidiol]
play behaviour (rat VPA model of autism; cohort one, CBD 10 mg/kg p.o.): Ø
play behaviour (rat VPA model of autism; cohort one, CBD 30 mg/kg p.o.): Ø
play behaviour (rat VPA model of autism; cohort one, CBD 60 mg/kg p.o.): +
play behaviour (rat VPA model of autism; [2]): Ø
play behaviour (rat VPA model of autism; [3]): +
Mount Duration (sec) (rat VPA model of autism; study one, CBD 10 mg/kg): X (X = no effect)
Mount Frequency (rat VPA model of autism; study one, CBD 10 mg/kg): X (X = no effect)
Social Play Duration (sec) (rat VPA model of autism; study one, CBD 10 mg/kg): X (X = no effect)
Social Play Frequency (rat VPA model of autism; study one, CBD 10 mg/kg): X (X = no effect)
Social Play Latency (sec) (rat VPA model of autism; study one, CBD 10 mg/kg): X (X = no effect)
latency to engage in mounting play behaviour (delay) (rat VPA model of autism; study one, CBD 10 mg/kg, vs VPA/VEH): significantly attenuated
Mount Duration (sec) (rat VPA model of autism; study one, CBD 30 mg/kg): X (X = no effect)
Mount Frequency (rat VPA model of autism; study one, CBD 30 mg/kg): X (X = no effect)
Social Play Duration (sec) (rat VPA model of autism; study one, CBD 30 mg/kg): X (X = no effect)
Social Play Frequency (rat VPA model of autism; study one, CBD 30 mg/kg): X (X = no effect)
Social Play Latency (sec) (rat VPA model of autism; study one, CBD 30 mg/kg): X (X = no effect)
latency to engage in mounting play behaviour (delay) (rat VPA model of autism; study one, CBD 30 mg/kg, vs VPA/VEH): significantly attenuated
Social Play Frequency (rat VPA model of autism; study one, CBD 60 mg/kg): X (X = no effect)
Social Play Latency (sec) (rat VPA model of autism; study one, CBD 60 mg/kg): X (X = no effect)
decrease in duration of mounting behaviour (rat VPA model of autism; [4]): reversed
decrease in frequency of mounting behaviour (rat VPA model of autism; [4]): ameliorated
latency to engage in mounting play behaviour (delay) (rat VPA model of autism; [4]): significantly attenuated
reduction in social play duration (rat VPA model of autism; [4]): significantly attenuated
reduction in social play duration (rat VPA model of autism; study two, CBD 30 mg/kg): without effect
decrease in duration of mounting behaviour (rat VPA model of autism; study two, CBD 60 mg/kg): reversed
reduction in social play duration (rat VPA model of autism; study two, CBD 60 mg/kg, vs VPA/VEH): significantly attenuated
Mount Duration (sec) (rat VPA model of autism; study two, CBD alone 30 mg/kg): X (X = no effect)
Mount Frequency (rat VPA model of autism; study two, CBD alone 30 mg/kg): X (X = no effect)
Mount Latency (sec) (rat VPA model of autism; study two, CBD alone 30 mg/kg): X (X = no effect)
Social Play Duration (sec) (rat VPA model of autism; study two, CBD alone 30 mg/kg): X (X = no effect)
Social Play Frequency (rat VPA model of autism; study two, CBD alone 30 mg/kg): X (X = no effect)
Social Play Latency (sec) (rat VPA model of autism; study two, CBD alone 30 mg/kg): X (X = no effect)
Mount Frequency (rat VPA model of autism; study two, CBD alone 60 mg/kg): X (X = no effect)
Mount Latency (sec) (rat VPA model of autism; study two, CBD alone 60 mg/kg): X (X = no effect)
Social Play Frequency (rat VPA model of autism; study two, CBD alone 60 mg/kg): X (X = no effect)
Social Play Latency (sec) (rat VPA model of autism; study two, CBD alone 60 mg/kg): X (X = no effect)
MPO activity ([1]; cohort one, CBD 10 mg/kg p.o.): Ø
MPO activity ([1]; cohort one, CBD 30 mg/kg p.o.): Ø
MPO activity ([1]; cohort one, CBD 60 mg/kg p.o.): +
MPO activity [1, 2]: Ø
MPO activity [1, 3]: +
increase in colonic MPO activity [1, 4]: significantly prevented
increase in colonic MPO activity ([1]; study two, CBD 30 mg/kg): without significant effect
increase in colonic MPO activity ([1]; study two, CBD 60 mg/kg): significantly prevented

Cc1nc2n(c(=O)c1CCN1CCC(c3noc4cc(F)ccc34)CC1)CCCC2 [Risperidone, risperidone]
play behaviour (rat VPA model of autism; [5]): Ø
any other measure of play or social interaction in juvenile animals (rat VPA model of autism; risperidone 0.125 mg/kg): without effect
Mount Duration (sec) (rat VPA model of autism; [6]): X (X = no effect)
Mount Frequency (rat VPA model of autism; [6]): X (X = no effect)
Social Play Duration (sec) (rat VPA model of autism; [6]): X (X = no effect)
Social Play Frequency (rat VPA model of autism; [6]): X (X = no effect)
Social Play Latency (sec) (rat VPA model of autism; [6]): X (X = no effect)
MPO activity [1, 5]: Ø
increase in colonic MPO activity ([1]; study one, risperidone 0.125 mg/kg i.p.): without effect
